Data as given in patent US20230114854A1, “CHIMERIC ANTIGEN RECEPTOR TARGETING B-CELL MATURATION ANTIGEN AND USE THEREOF” (CELLGENTEK CO., LTD., priority 2020, published 2023).
“And” between values parts separate entries of the source, which are not always exact repeats. Identical values can stand only once.

Key:
[1] = system: multiple myeloma cell line H929 xenograft; conditions: for growth inhibition rate (GIR (%)) versus untreated group (Vehicle): Day 17, NK cells 1×10^7 cells i.v. ×3, Velcade and Darzalex 0.5 mg/kg i.p. ×5
Procedure: In a xenograft animal model using NOD.Cg-Prkdcscid Il2rgtm1Wj1/SzJ (NSG) mouse (Jackson Laboratory, Jax #00557 strain), the anticancer efficacy of BCMA-CAR NK cells expressing BCMA-CAR1 was evaluated.
After subcutaneous implantation of multiple myeloma cell line H929 with high BCMA expression, when the tumor size reached 150 mm^3 (10 days post implantation), 5 mice were randomly assigned to each group, and once every 5 days, BCMA-CAR NK cells or control NK cells (NKvec) were administered at a concentration of 1×10^7 cells via intravenous tail vein injection (i.v.) in a total of 3 administrations. Here, a proteasome inhibitor, Velcade® (ingredient name: Bortezomib) and an antibody medication, Darzalex® (ingredient name: Daratumumab) being used as treatment medications for multiple myeloma patients were used as control drugs, and Velcade® (Vel) and Darzalex® (Dara) were each administered at a concentration of 0.5 mg/kg via intraperitoneal (i.p.) route, once every 3-4 days, in a total of 5 administrations.

[2] = target: BCMA expressed on multiple myeloma cells (H929, MM1.R, OPM-2) (UniProt Q02223); test: cell-based or functional assay
Sequence of UniProt Q02223 (Q02223 whole entry): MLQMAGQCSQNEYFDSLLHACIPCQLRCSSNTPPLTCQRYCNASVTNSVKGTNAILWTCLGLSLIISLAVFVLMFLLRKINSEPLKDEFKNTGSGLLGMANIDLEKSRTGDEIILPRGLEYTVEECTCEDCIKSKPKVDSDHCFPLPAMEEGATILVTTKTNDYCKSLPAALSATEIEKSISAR

## CC(C)C[C@H](NC(=O)[C@H](Cc1ccccc1)NC(=O)c1cnccn1)B(O)O [Velcade, Bortezomib]
[1]
  growth inhibition rate (GIR (%)) versus untreated group (Vehicle): 39%
[1]; mouse, in vivo
  toxicity (body weight): toxicity i.e., a decrease in body weight

## Daratumumab [Darzalex]
[1]
  growth inhibition rate (GIR (%)) versus untreated group (Vehicle): 23%

B1: BCMA-CAR3 (protein)
chain: EVQLLESGGGLVQPGGSLRLSCAASGFTFSDYGLSWVRQAPGKGLEWVSLIDSSGSSTFYADSVKGRFTISRDNSKNTLYLQMNSLRAEDTAVYYCAKEHGLFDSWGQGTLVTVSSGSTSGSGKPSGEGSTKGEIVLTQSPGTLSLSPGERATLSCKASQDIDDDINWYQQKPGQAPRLLIYDASLRATGIPDRFSGSGSGTDFTLTISRLEPEDFAVYYCQQSLRTPITFGQGTKLEIKRALSNSIMYFSHFVPVFLPAKPTTTPAPRPPTPAPTIASQPLSLRPEASRPAAGGAVHTRGLDKPFWVLVVVGGVLACYSLLVTVAFIIFWVRSKRSRLLHSDYMNMTPRRPGPTRKHYQPYAPPRDFAAYRSGGGGSKRGRKKLLYIFKQPFMRPVQTTQEEDGCSCRFPEEEEGGCELGGGGSRVKFSRSADAPAYQQGQNQLYNELNLGRREEYDVLDKRRGRDPEMGGKPRRKNPQEGLYNELQKDKMAEAYSEIGMKGERRRGKGHDGLYQGLSTATKDTYDALHMQALPPR
[2]
  cytolytic activity toward multiple myeloma cells (H929, MM1.R, OPM-2), versus control NK cells (NKvec): 3 to 4 times and > 4 times

B2: BCMA-CAR4 (protein)
chain: EVQLLESGGGLVQPGGSLRLSCAASGFTFSGHYWSWVRQAPGKGLEWVSTVSGSGGDTFYADSVKGRFTISRDNSKNTLYLQMNSLRAEDTAVYYCARGHSVMDVWGQGTLVTVSSGSTSGSGKPSGEGSTKGEIVLTQSPGTLSLSPGERATLSCRASQGIDSYVAWYQQKPGQAPRLLIYDASLRATGIPDRFSGSGSGTDFTLTISRLEPEDFAVYYCQQYNSWPITFGQGTKLEIKRALSNSIMYFSHFVPVFLPAKPTTTPAPRPPTPAPTIASQPLSLRPEASRPAAGGAVHTRGLDKPFWVLVVVGGVLACYSLLVTVAFIIFWVRSKRSRLLHSDYMNMTPRRPGPTRKHYQPYAPPRDFAAYRSGGGGSKRGRKKLLYIFKQPFMRPVQTTQEEDGCSCRFPEEEEGGCELGGGGSRVKFSRSADAPAYQQGQNQLYNELNLGRREEYDVLDKRRGRDPEMGGKPRRKNPQEGLYNELQKDKMAEAYSEIGMKGERRRGKGHDGLYQGLSTATKDTYDALHMQALPPR
[2]
  cytolytic activity toward multiple myeloma cells (H929, MM1.R, OPM-2), versus control NK cells (NKvec): 3 to 4 times and > 4 times

B3: BCMA-CAR2 (protein)
chain: EVQLLESGGGLVQPGGSLRLSCAASGFTFSNYGVHWVRQAPGKGLEWVSYISYSGGTYYNPSLKSRFTISRDNSKNTLYLQMNSLRAEDTAVYYCARDSDDFGFDYWGQGTLVTVSSGSTSGSGKPSGEGSTKGQSVLTQPPSASGTPGQRVTISCQGDSLRSYYVNWYQQLPGTAPKLLIYDHSKRPTGVPDRFSGSKSGTSASLAISGLRSEDEADYYCQSYDSSTVVFGGGTKLTVLGALSNSIMYFSHFVPVFLPAKPTTTPAPRPPTPAPTIASQPLSLRPEASRPAAGGAVHTRGLDKPFWVLVVVGGVLACYSLLVTVAFIIFWVRSKRSRLLHSDYMNMTPRRPGPTRKHYQPYAPPRDFAAYRSGGGGSKRGRKKLLYIFKQPFMRPVQTTQEEDGCSCRFPEEEEGGCELGGGGSRVKFSRSADAPAYQQGQNQLYNELNLGRREEYDVLDKRRGRDPEMGGKPRRKNPQEGLYNELQKDKMAEAYSEIGMKGERRRGKGHDGLYQGLSTATKDTYDALHMQALPPR
[2]
  cytolytic activity toward multiple myeloma cells (H929, MM1.R, OPM-2), versus control NK cells (NKvec): 3 to 4 times and > 4 times
